Test [1] relates to INS1(832/13). Briefly: Cytoprotective activity in rat INS-1 832/13 cells assessed as inhibition of STZ-induced apoptosis incubated for 24 hrs by MTT assay. It is filed as functional, cell-based. The conditions noted are these: INS-1 832/13, 24 h. (Tetrazolium assays rely on reduction of a dye to a coloured formazan, in cell work by metabolically active cells.)
The subject of test [2] is INS1(832/13). Nature of the test: Cytoprotective activity in rat INS-1 832/13 cells assessed as inhibition of STZ-induced apoptosis at 20 uM incubated for 24 hrs by MTT assay relative to control. It is filed as functional.

The structures appear in SMILES notation. Active and inactive are the calls of the source. The rule behind the calls is not given here.

The term EC50 denotes the concentration that produces a half-maximal response. As to `CC[C@@]12C=C(COC(=O)NCCCO)n3c4c(c5ccccc53)CCN(CCC1)[C@H]42`, the EC50 in test [1] is 9.05 µM. Further, the result in test [2] was Active.

`CC[C@@]12C=C(CNC(=O)NC)n3c4c(c5ccccc53)CCN(CCC1)[C@H]42`: in test [2], the result was inactive. Take `CCN(CC)C(=O)C1=C[C@]2(CC)CCCN3CCc4c(n1c1ccccc41)[C@@H]32`: in test [1], the EC50 turned out to be 11.5 µM. Moreover, in test [2], the result was Active.

Turning to `CCNC(=O)NCC1=C[C@]2(CC)CCCN3CCc4c(n1c1ccccc41)[C@@H]32`, the outcome in test [2] was inactive. Consider `CC[C@@]12C=C(C(=O)NC(C)C)n3c4c(c5ccccc53)CCN(CCC1)[C@H]42`, for which, in test [1], the EC50 stood at 10.8 µM. For the same compound, the outcome in test [2] was Active. On to `CC[C@@]12C=C(CNCc3ccccc3)n3c4c(c5ccccc53)CCN(CCC1)[C@H]42`, for which, in test [2], the result was inactive. On to `CCCCCNC(=O)C1=C[C@]2(CC)CCCN3CCc4c(n1c1ccccc41)[C@@H]32`, for which the outcome in test [2] was inactive. Turning to `CCCOC(=O)C1=C[C@]2(CC)CCCN3CCc4c(n1c1ccccc41)[C@@H]32`, the EC50 in test [1] amounted to 5.44 µM. In test [2], the result was Active. The like results for `CC[C@@]12C=C(C(=O)N3CCCC3)n3c4c(c5ccccc53)CCN(CCC1)[C@H]42` were, in that order, 13.2 µM and “Active”. For `CC[C@@]12C=C(C(N)=O)n3c4c(c5ccccc53)CCN(CCC1)[C@H]42`, the EC50 in test [1] was 10.2 µM. The result in test [2] was inactive. Turning to `CC[C@@]12C=C(C(=O)OC)n3c4c(c5ccccc53)CCN(CCC1)[C@H]42` [APOVINCAMINE], in test [1], the EC50 turned out to be 5.03 µM. Further, the outcome in test [2] was Active. `CC[C@@]12C=C(COC(=O)NC(C)C)n3c4c(c5ccccc53)CCN(CCC1)[C@H]42`: the EC50 in test [1] stood at 10.8 µM. Moreover, in test [2], the result was Active. As to `CCCC(=O)NCC1=C[C@]2(CC)CCCN3CCc4c(n1c1ccccc41)[C@@H]32`, the EC50 in test [1] turned out to be 8.7 µM. The result in test [2] was Active.

Turning to `CCCCN(CCCC)C(=O)C1=C[C@]2(CC)CCCN3CCc4c(n1c1ccccc41)[C@@H]32`, in test [2], the result was inactive. With `CC[C@@]12C=C(C(=O)Nc3ccc(OC)cc3)n3c4c(c5ccccc53)CCN(CCC1)[C@H]42`, the outcome in test [2] was inactive.

As to `CCCNCC1=C[C@]2(CC)CCCN3CCc4c(n1c1ccccc41)[C@@H]32`, the outcome in test [2] was inactive. For the compound `CCCC(=O)OCC1=C[C@]2(CC)CCCN3CCc4c(n1c1ccccc41)[C@@H]32`, in test [1], the EC50 stood at 3.77 µM. Moreover, the result in test [2] was Active. On to `CC[C@@]12C=C(CNC(N)=O)n3c4c(c5ccccc53)CCN(CCC1)[C@H]42`, for which the outcome in test [2] was inactive. Turning to `CC[C@@]12C=C(CN)n3c4c(c5ccccc53)CCN(CCC1)[C@H]42`, in test [1], the EC50 was 7.62 µM. Further, the outcome in test [2] was Active. Consider `CCNC(=O)OCC1=C[C@]2(CC)CCCN3CCc4c(n1c1ccccc41)[C@@H]32`, for which, in test [1], the EC50 is 1.69 µM. The outcome in test [2] was Active. Regarding `CCNC(=O)C1=C[C@]2(CC)CCCN3CCc4c(n1c1ccccc41)[C@@H]32`, the EC50 in test [1] turned out to be 0.2 µM. Moreover, the result in test [2] was Active. For `CC[C@@]12C=C(C(=O)N(C)C)n3c4c(c5ccccc53)CCN(CCC1)[C@H]42`, in test [2], the result was inactive. In the case of `CC[C@@]12C=C(C(=O)NCCCO)n3c4c(c5ccccc53)CCN(CCC1)[C@H]42`, in test [1], the EC50 was 10.2 µM. Moreover, the result in test [2] was Active. With `CCCCNC(=O)C1=C[C@]2(CC)CCCN3CCc4c(n1c1ccccc41)[C@@H]32`, the EC50 in test [1] turned out to be 9.4 µM. Further, the outcome in test [2] was Active. In the same order, the values of `CCCNC(=O)C1=C[C@]2(CC)CCCN3CCc4c(n1c1ccccc41)[C@@H]32` are 0.37 µM and “Active”. On to `CC[C@@]12C=C(COC(=O)NCCO)n3c4c(c5ccccc53)CCN(CCC1)[C@H]42`, for which the 50% effective concentration (EC50) in test [1] was 5.32 µM. Also, the outcome in test [2] was Active.

Regarding `CC[C@@]12C=C(COC(=O)NC)n3c4c(c5ccccc53)CCN(CCC1)[C@H]42`, the EC50 in test [1] stood at 1.65 µM. Further, the outcome in test [2] was Active. Take `CC[C@@]12C=C(C(=O)Nc3ccccc3)n3c4c(c5ccccc53)CCN(CCC1)[C@H]42`: the result in test [2] was inactive. Regarding `CC[C@@]12C=C(CNC(=O)C3CC3)n3c4c(c5ccccc53)CCN(CCC1)[C@H]42`, in test [1], the EC50 is 4.4 µM. Besides, in test [2], the outcome was Active. Turning to `CCCCNC(=O)OCC1=C[C@]2(CC)CCCN3CCc4c(n1c1ccccc41)[C@@H]32`, the outcome in test [2] was inactive. In the case of `CC[C@@]12C=C(COC(C)=O)n3c4c(c5ccccc53)CCN(CCC1)[C@H]42`, the EC50 in test [1] turned out to be 0.36 µM. In addition, the outcome in test [2] was Active.

With `CCCNC(=O)OCC1=C[C@]2(CC)CCCN3CCc4c(n1c1ccccc41)[C@@H]32`, the EC50 in test [1] stood at 5.85 µM. For the same compound, the result in test [2] was Active.

For the compound `CC[C@@]12C=C(C(=O)NCCO)n3c4c(c5ccccc53)CCN(CCC1)[C@H]42`, the EC50 in test [1] was determined as 0.96 µM. The outcome in test [2] was Active.

`CC[C@@]12C=C(COC(=O)Nc3ccccc3)n3c4c(c5ccccc53)CCN(CCC1)[C@H]42`: the result in test [2] was inactive.

For `CC[C@@]12C=C(C(=O)N3CCOCC3)n3c4c(c5ccccc53)CCN(CCC1)[C@H]42`, in test [1], the EC50 stood at 10.9 µM. In addition, the result in test [2] was Active. With `CC[C@@]12C=C(COC(=O)c3ccccc3)n3c4c(c5ccccc53)CCN(CCC1)[C@H]42`, in test [2], the outcome was inactive. As for `CC[C@@]12C=C(CNC(=O)C(C)C)n3c4c(c5ccccc53)CCN(CCC1)[C@H]42`, in test [1], the EC50 amounted to 7.2 µM. For the same compound, in test [2], the result was Active. The like results for `CC[C@@]12C=C(COC(=O)C(C)C)n3c4c(c5ccccc53)CCN(CCC1)[C@H]42` were, in that order, 1.74 µM and “Active”. Consider `CC[C@@]12C=C(CNC(=O)c3ccccc3)n3c4c(c5ccccc53)CCN(CCC1)[C@H]42`, for which, in test [2], the outcome was inactive.

As to `CC[C@@]12C=C(C(=O)OC(C)C)n3c4c(c5ccccc53)CCN(CCC1)[C@H]42`, the concentration giving a half-maximal response (EC50) in test [1] is 4.55 µM. Also, the result in test [2] was Active.

Take `CC[C@@]12C=C(C(=O)NC3CCCC3)n3c4c(c5ccccc53)CCN(CCC1)[C@H]42`: the half-maximal effective concentration (EC50) in test [1] is 12.8 µM. Moreover, in test [2], the result was Active. Turning to `CC[C@@]12C=C(CNC(=O)Nc3ccccc3)n3c4c(c5ccccc53)CCN(CCC1)[C@H]42`, the result in test [2] was inactive. Turning to `CC[C@@]12C=C(CNC)n3c4c(c5ccccc53)CCN(CCC1)[C@H]42`, the EC50 in test [1] was found to be 1.6 µM. Moreover, in test [2], the result was Active. Turning to `CC[C@@]12C=C(COC(N)=O)n3c4c(c5ccccc53)CCN(CCC1)[C@H]42`, the EC50 in test [1] came out at 8.75 µM. Further, the result in test [2] was Active.

With `CCC(=O)OCC1=C[C@]2(CC)CCCN3CCc4c(n1c1ccccc41)[C@@H]32`, the concentration for a half-maximal effect (EC50) in test [1] was 6.84 µM. In addition, the outcome in test [2] was Active. In the same order, the values of `CCCN(CCC)C(=O)C1=C[C@]2(CC)CCCN3CCc4c(n1c1ccccc41)[C@@H]32` are 7.1 µM and “Active”. `CCC(=O)NCC1=C[C@]2(CC)CCCN3CCc4c(n1c1ccccc41)[C@@H]32`: in test [1], the EC50 is 3.02 µM. Further, the outcome in test [2] was Active.

Regarding `CC[C@@]12C=C(C(=O)N3CCCCC3)n3c4c(c5ccccc53)CCN(CCC1)[C@H]42`, in test [1], the EC50 was determined as 4.89 µM. Moreover, in test [2], the result was Active. Turning to `CC[C@@]12C=C(C(=O)NC)n3c4c(c5ccccc53)CCN(CCC1)[C@H]42`, in test [1], the EC50 came to 0.66 µM. The outcome in test [2] was Active.

For the origin of these results see ChEMBL document CHEMBL4680150, “Design, synthesis and biological evaluation of vincamine derivatives as potential pancreatic β-cells protective agents for the treatment of type 2 diabetes mellitus” (Eur J Med Chem, 2020).
